Test results taken from PubChem BioAssay AID2060912 (Molecular Pharmacology Branch, DTP, NCI, 2025).

Test system: HUVEC/MSC spheroids viability
Experiment: Human HUVEC/MSC cell line growth inhibition [KRAS2];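 as to viability, T/C: percent of DMSO vehicle control luminescence so 100% = untreated viability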
Settings: for IC50: curve of first compound; for viability, T/C: stronger effect = lower value; active = viability on the fitted dose curve at most 10% of control; inactive = the rest
Excerpt: Multicellular complex tumor spheroid response to RAS pathway inhibitors in combination with a targeted agents in patient-derived cell lines with oncogenic KRAS variants from multiple cancer types
A high-throughput screen of multi-cell type tumor spheroids was designed to identify active combinations of targeted small molecules and KRAS pathway inhibitors. Complex spheroids include a stromal component modeled by human endothelial cells (HUVEC) and fibroblasts modeled by human mesenchymal stem cells (MSCs). The concentration ranges selected for each drug and investigational agent were based upon clinically achievable concentrations if the clinical Cmax of the agent was known. * [This particular assayID is a followup dataset requested by reviewers of the manuscript. It is a test of the HUVEC and MSC without the tumor cells, and was conducted using different drug plates and a different plate layout.]
Compounds. The drugs and investigational agents: BI-3406 (NSC825286), BAY-293 (NSC824723), batoprotafib (TNO155; NSC825523), sotorasib (AMG 510; NSC818433), MRTX1257 (NSC819558), elimusertib (BAY 1895344; NSC800525), molibresib (GSK525762; NSC774829), temuterkib (LY3214996; NSC803410), venetoclax (NSC766270), alisertib (NSC759677), olaparib (NSC753686), talazoparib (NSC767125), erdafitinib (NSC781556), ipatasertib (NSC767898), cabozantinib (NSC761068), nintedanib (NSC756659), abemaciclib (NSC768073), docetaxel (NSC628503), trametinib (NSC758246), and sapanisertib (NSC764658) were obtained from the National Cancer Institute (NCI) Developmental Therapeutics Program Chemical Repository. The FDA-approved anticancer drug set is available from the Developmental Therapeutics Program. […] The stock solutions were prepared in dimethyl sulfoxide (DMSO, Sigma-Aldrich, St. Louis, MO, cat. D2650) at 800-fold the tested concentration and stored at -70 degrees C prior to their use. All drugs and investigational agents were tested over a range starting from a high concentration at or near the clinical Cmax and decreasing in half-log increments. If the clinical Cmax for an agent had not been determined, the highest concentration tested was 10 microM.
Cell Culture. All cells were maintained in an incubator at 37 degrees C and 5% CO2 with 95% humidity. The PDC lines were cultured according to standard operating procedures established by the NCI PDMR (https://pdmr.cancer.gov/sops/default.htm). Briefly, all PDCs were thawed and cultured in Matrigel-coated flasks prepared with a working solution of 1X Ham's F-12 nutrient mix, without supplementation (Invitrogen, Waltham, MA, cat. 11765054), 100 U/mL penicillin-streptomycin (Invitrogen, cat. 15140122), and 2.5% Matrigel (Corning Inc., Corning, NY, cat. 354248) for the first three passages. All PDCs were cultured in complete DMEM/F-12 media containing advanced DMEM/F-12 (Invitrogen, cat. 12634028), 4.9% defined fetal bovine serum, heat inactivated (HyClone Laboratories Inc., Logan, UT, cat. SH30070.03HI), 389 ng/mL hydrocortisone (Sigma-Aldrich, cat. H4001), 9.7 ng/mL human EGF recombinant protein (Invitrogen, cat. PHG0313), 23.4 microg/mL adenine (Sigma-Aldrich, cat. A2786), 97.3 U/mL penicillin-streptomycin (Invitrogen, cat. 15140122), 1.9 mM L-glutamine (Invitrogen, cat. 25030081), and 9.7 microM Y-27632 dihydrochloride (Tocris Bioscience, Bristol, United Kingdom, cat. 1254). The PDCs were cultured in complete DMEM/F12 media without 9.7 microM Y-27632 dihydrochloride for at least two passages prior to the screen. The established cell line HOP-62 was cultured in RPMI 1640 medium, HEPES (Invitrogen, cat. 22400105) with 10% defined fetal bovine serum (HyClone Laboratories Inc., cat. SH30070.03) and 2 mM L-glutamine (Invitrogen, cat. 25030081). The pooled donor HUVEC were cultured in endothelial cell growth medium 2 (PromoCell, Heidelberg, Germany, cat. C-22011) and the hMSC were cultured in mesenchymal stem cell growth medium 2 (PromoCell, cat. C-28009). […]

CC1COCCN1c1cc(-c2ccnn2C)c2ccnc(-c3ccn[nH]3)c2n1 (configuration not stated) + C=CC(=O)N1CCN(c2nc(=O)n(-c3c(C)ccnc3C(C)C)c3nc(-c4c(O)cccc4F)c(F)cc23)C(C)C1
2.75 µM: IC50 (second compound 0.316 µM)
2.52 µM: IC50 (second compound 0.0316 µM)
inactive: viability, T/C (second compound 0.0316 µM, first compound 0.00949 µM) 82.3% | viability, T/C (second compound 0.0316 µM, first compound 0.03 µM) 97.5% | viability, T/C (second compound 0.0316 µM, first compound 0.0949 µM) 75% | viability, T/C (second compound 0.0316 µM, first compound 0.3 µM) 73.2% | viability, T/C (second compound 0.0316 µM, first compound 0.949 µM) 64.6% | viability, T/C (second compound 0.0316 µM, first compound 3 µM) 47.4% | viability, T/C (second compound 0.1 µM, first compound 0.00949 µM) 113% | viability, T/C (second compound 0.1 µM, first compound 0.03 µM) 83.7% | viability, T/C (second compound 0.1 µM, first compound 0.0949 µM) 96.6% | viability, T/C (second compound 0.1 µM, first compound 0.3 µM) 83.2% | viability, T/C (second compound 0.1 µM, first compound 0.949 µM) 50.7% | viability, T/C (second compound 0.1 µM, first compound 3 µM) 51.8% | viability, T/C (second compound 0.316 µM, first compound 0.00949 µM) 114% | viability, T/C (second compound 0.316 µM, first compound 0.03 µM) 105% | viability, T/C (second compound 0.316 µM, first compound 0.0949 µM) 94.2% | viability, T/C (second compound 0.316 µM, first compound 0.3 µM) 75.5% | viability, T/C (second compound 0.316 µM, first compound 0.949 µM) 63.3% | viability, T/C (second compound 0.316 µM, first compound 3 µM) 48.6% | viability, T/C (second compound 1 µM, first compound 0.00949 µM) 108% | viability, T/C (second compound 1 µM, first compound 0.03 µM) 119% | viability, T/C (second compound 1 µM, first compound 0.0949 µM) 96.2% | viability, T/C (second compound 1 µM, first compound 0.3 µM) 76.3% | viability, T/C (second compound 1 µM, first compound 0.949 µM) 76% | viability, T/C (second compound 1 µM, first compound 3 µM) 54.6% | viability, T/C (second compound 3.16 µM, first compound 0.00949 µM) 103% | viability, T/C (second compound 3.16 µM, first compound 0.03 µM) 117% | viability, T/C (second compound 3.16 µM, first compound 0.0949 µM) 101% | viability, T/C (second compound 3.16 µM, first compound 0.3 µM) 88.5% | viability, T/C (second compound 3.16 µM, first compound 0.949 µM) 73.2% | viability, T/C (second compound 3.16 µM, first compound 3 µM) 74.8% | viability, T/C (second compound 10 µM, first compound 0.00949 µM) 121% | viability, T/C (second compound 10 µM, first compound 0.03 µM) 123% | viability, T/C (second compound 10 µM, first compound 0.0949 µM) 115% | viability, T/C (second compound 10 µM, first compound 0.3 µM) 102% | viability, T/C (second compound 10 µM, first compound 0.949 µM) 72% | viability, T/C (second compound 10 µM, first compound 3 µM) 77.1%
> 3 µM: IC50 (second compound 0.1 µM) | IC50 (second compound 1 µM) | IC50 (second compound 3.16 µM) | IC50 (second compound 10 µM)
